Experimental data as given in ChEMBL document CHEMBL5576106, “Highly Functionalized Spirobisnaphthalenes from Roussoella sp. KT4147” (J Nat Prod, 2024).

Tested on: COLO 201
Assay: Cytotoxicity against human COLO201 cells assessed as inhibition of cell growth incubated for 24 hrs by WST-1 assay
Assay type: functional, cell-based
Settings: COLO 201, 24 h

First: CC[C@@]1(O)C(=O)OCc2c1cc1n(c2=O)Cc2cc3ccccc3nc2-1 [CAMPTOTHECIN]
Second: O=C1C=CC(=O)C2=C1[C@@H](O)[C@H]1O[C@H]1C21Oc2cccc3cccc(c23)O1
The IC50 of the first is 2.9-fold higher: 27 µM for the first, 9.4 µM for the second.

`O=C1C[C@@H](N[C@@H]2CC(=O)c3cccc4c3[C@@]23Oc2ccc(O)c5c2[C@](O4)(O3)[C@@H]2O[C@@H]2C5=O)[C@]23Oc4ccc(O)c5c4[C@](Oc4cccc1c42)(O3)[C@@H]1O[C@@H]1C5=O` and `COc1cc(=O)oc2c1[C@H](CO)[C@@H]1[C@H](C2)C(=O)c2cccc3c2[C@@]12Oc1ccc(O)c4c1[C@](O3)(O2)[C@@H]1O[C@@H]1C4=O` are within 1.5-fold of each other in IC50: 5.7 µM for the first, 5.4 µM for the second.

In the case of `Oc1ccc(O)c2c1[C@@H](O)C[C@@H](O)C21Oc2cccc3cccc(c23)O1`, the IC50 is reported as 9.8 µM.
